One compound from patent US11524950B2, “Treatment of immune-related and inflammatory diseases” (Celgene Corporation, priority 2012, dated 2022) can be followed below.

For orientation: IC50 means the midpoint of a concentration-inhibition curve.

Test [1] concerns IRF4, BLIMP1, XBP1, PAX5, IgJ. Put plainly: B and plasma cell transcription factor gene expression (RT-PCR), normal B cell differentiation culture. The format is cell-based, human. Here is the method:
Differentiated B cells (see section 8.2.3) were harvested for total ribonucleic acid (RNA) preparation with a Qiacube RNA extraction instrument (Qiagen, Valencia, Calif.) using QIAGEN RNeasy mini spin-column kits. Purified RNA was reverse transcribed into cDNA with thermal cycler [MJ Research; Inc., St. Bruno, Quebec, Canada) using a reverse-transcriptase kit (Applied Biosystems). The gene expression assay was carried out using 7500 RT-PCR system (Applied Biosystems) in triplicate. A glyceraldehyde 3-phosphate dehydrogenase gene expression assay control was run for each sample and used as a normalization control. For each gene, samples within each experiment were normalized to 0.1% DMSO treatment only for that particular time point.

The subject of test [2] is BCL-6, IRF-4, BLIMP-1, PAX5 and XBP-1. Put plainly: Transcription factor protein expression by intracellular flow cytometry, normal B cell differentiation. The format is cell-based, human. The procedure:
Immunophenotyping For Flow Cytometric Analysis: Cells were stained using multicolor direct immunofluorescence stain for flow cytometric analysis. Surface staining was performed before cell fixation and permeabilization. Cells (50 μl; 1×10^6 cells/ml in washing buffer, 2% FBS with 0.1% NaN3 in PBS) were used for each staining. The cells were stained with isotype control mAb ([…]) and multicolor FITC-conjugated anti-CD20 mAb and PE-conjugated anti-CD38 mAb, or PerCP-Cy5.5 conjugated anti-CD44 mAb, PE-conjugated anti-CD83 mAb were used for day 4 activated B cells (CD20+CD38-cells), and day 4 PBs and day 7 PBs (CD20-CD38+), and other staining, analyzed by flow cytometry as per manufacturer's instructions. The intracellular staining of transcription factor proteins (BCL-6, IRF-4, BLIMP-1, PAX-5 and XBP-1) and IgJ was performed according to the manufacturer's recommendations. Flow cytometric analysis was performed with a FACSCanto using FACSDiva 6 (BD Biosciences). For data analysis, Flowjo (Tree Star) software was used.
B cells were cultured as described in above and cells were harvested at day 4, day 7 for immunofluoresence staining. The cells were first stained for CD20 and CD38, and after cell permeabilization, stained for BCL-6, IRF-4, BLIMP-1, PAX5 and XBP-1, then were analyzed by gating on whole lymphocytes.
For orientation: A flow cytometer gives signals particle by particle.

Test [3] has as its system DBA/2 mice. Put plainly: Bleomycin-induced dermal fibrosis mouse model (prevention). Format: in vivo. Conditions: 30 mg/kg, PO, QD. Here is the method:
(§1) DBA/2 mice were used in this study. Eight animals were used per treatment group in the study. Mice were kept in the animal house under standard conditions with food and water ad libidum.
The vehicle, 0.5% carboxymethyl cellulose (CMC)/0.25% Tween 80, was prepared in distilled H2O and dissolved overnight on a magnetic stirrer (add 0.5 g CMC; Sigma #C9481) and 0.25 ml Tween 80 (Sigma #P8074) to 99.75 ml to make a total of 100 ml 0.5% CMC/0.25% Tween 80).
(§2) The compound was suspended, not dissolved, in this vehicle. The formulation was homogenized with a Teflon pestle and mortar (Potter-Elvehjem tissue grinder) using a motorized Eberbach tissue homogenizer. The daily drug stock concentration used in these studies was 3 mg/ml.
(§3) Bleomycin was obtained from the pharmacy of the University of Erlangen-Nuremberg and freshly prepared once a week. Skin fibrosis was induced in 6-week-old DBA mice by local intracutaneous injections of 100 μl of bleomycin dissolved in 0.9% NaCl, at a concentration of 0.5 mg/ml, every other day in defined areas of 1.5 cm^2 on the upper back.
The mouse model of bleomycin induced dermal fibrosis is widely used to evaluate anti-fibrotic therapeutics. In this model, a localized dermal fibrosis is induced by intradermal injections with bleomycin every other day for 3 weeks. This model resembles early, inflammatory stages of SSc. To evaluate potential effects on prevention of fibrosis, treatment was initiated simultaneously with the first bleomycin injection. […] Treatment consisted of administration of the vehicle (0.5% CMC/0.25% Tween 80). • Untreated bleomycin group: Intradermal injection of bleomycin for three weeks. […] Injection of Imatinib (50 mg/kg; IP, QD). […] See Akhmetshina A. et al., Arthritis Rheum 2009; 60(1):219-224.
(§4) Dermal thickness was determined by staining with hematoxylin and eosin and activated fibroblasts by using immunohistochemistry for alpha smooth muscle actin (α-SMA). The dermal thickness, as determined by the modified Rodnan Skin Score, is currently the most common primary outcome in human clinical trials for anti-fibrotic agents in SSc. […] Dermal thickness was analyzed with a Nikon Eclipse 80i microscope (Nikon, Badhoevedorp, The Netherlands) by measuring the maximal distance between the epidermal-dermal junction and the dermal-subcutaneous fat junction at 4 different skin sections in each mouse. […]
(§5) For quantification of myofibroblasts, skin sections were deparaffinized and incubated with 5% bovine serum albumin for 60 minutes. Cells positive for α-SMA were detected by incubation with monoclonal anti-α-SMA antibodies (clone 1A4; Sigma-Aldrich, Steinheim, Germany) for 2 hours at room temperature followed by incubation with 3% hydrogen peroxide for 10 minutes. […]

Test [4] concerns DBA/2 mice. The experiment in a line: Bleomycin-induced dermal fibrosis mouse model (regression of established fibrosis). Format: in vivo. Conditions: 30 mg/kg, PO, QD. The procedure: as §1, §2, §3
To evaluate regression of fibrosis, a modified model of bleomycin induced dermal fibrosis was used. Mice were pre-challenged with bleomycin to induce a robust skin fibrosis. One group received treatment with the test compound, while challenge with bleomycin was ongoing for additional three weeks. The outcome of this group was compared to mice challenged with bleomycin for six weeks (prevention of further progression) and to mice challenged with bleomycin for three weeks followed by NaCl for additional three weeks (induction of regression). The following groups were used in the regression study: • Control group: Intradermal injection of NaCl for six weeks. Control treatment consisted of administration of the vehicle. • Untreated bleomycin group 1 (regression): Intradermal injection of bleomycin for three weeks followed by intradermal injections of NaCl for another three weeks. Treatment consisted of administration of the vehicle. […]
as §4, §5

In test [5] the test system is IgG. The experiment in a line: IgG production by SLE patient PBMC (ELISA). Conditions: Homo sapiens, read-out: IgG IC50 (nM) SLE (n = 3).
Method: (§6) Supernatants (from section 8.2.3) were harvested and analyzed by ELISA for IgG and IgM production (ZeptoMetrix Corp. Buffalo, N.Y.).
B Cell Differentiation Protocol: Enriched B cells were isolated from fresh buffy-coat (leukocyte enriched units) by Ficoll-Hypaque density gradient centrifugation followed by incubation with EasySep negative selection human B cell enrichment kit (Stem cell technologies). In brief, 2×10^8/ml PBMC were mixed with 4 ml of Robosep buffer and transferred to a 14 mL polystyrene round bottom tube. EasySep Human B cell enrichment cocktail (200 μL) was added per tube, vortexed and incubated at room temperature for 10 minutes. […] After cells were counted, an aliquot was removed for FACS analysis and the remaining cells were used for culture. […]
CD19+ peripheral blood human B cells from normal donors, or total peripheral blood mononuclear cell PBMC for patients with systemic lupus erythematosus (“SLE”), were cultured in the presence of interleukin (“IL”)-2, IL-10, IL15, TLR9 agonist, and CD40 L for 4 days, followed by IL-2, IL-6, IL-10 and IL-15 for another 3 days. Cells were counted, viability assessed, and expression of CD20, CD38, CD44, and CD83 were measured by flow cytometry. Plasmablast lineage factors IRF-4, BLIMP-1, XBP-1, and IgJ, and germinal center markers PAX-5 and BCL-6 were measured by qRT-PCR. […] Secreted immunoglobulins IgG and IgM were measured by ELISA.
The subject of test [6] is IgM. Put plainly: IgM production in normal PBMC differentiation cultures (ELISA). Conditions: Homo sapiens, read-out: IgM IC50 (nM) Normal (n = 3).
Method: Step 1—B cell Activation—day 0 through day 4: Prepare fresh B cell cocktail by adding 50 μg/mL of human transferrin to B cell media. (Iscoves+10% PFBS, 1% P/S, and 5 μg/mL human insulin). […] Five milliliters (1×10^5/ml) of CD19+ B cell were added to each well of a 6 well flat-bottom plate (final cell count=5×10^5/well). Five L (lx)±compound/DMSO was added to each test well (0.1% final DMSO) and incubated at 37° C. for 4 days.
Step 2—Plasmablast Generation—day 4 through day 7: Cells were harvested and counted on the cell counter; an aliquot was removed for flow analysis, the remaining cells were washed with PBS. Prepare fresh B cell cocktail by adding 1 μg/ml of human transferrin to B cell media. […] Add B cell differentiation cocktail (final concentration): recombinant human IL-2 (20 U/mL), IL-10 (50 ng/mL), IL-15 (10 ng/mL), IL-6 (50 ng/mL) to cells. Add fresh B cell cocktail and transfer cells back to the original wells and bring volume back to 5 mL. Five L (1×)±compound/DMSO was added to each test well (0.1% final DMSO) and incubated at 37° C. for 4 days.
as §6
The data was graphed using GraphPad Prism 5.0 software.
IgM and IgG were measured by ELISA.

Each structure is given as a SMILES string.

In the case of `O=C1CC[C@H](N2Cc3c(OCc4ccc(CN5CCOCC5)cc4)cccc3C2=O)C(=O)N1` [Test compound, (S)-3-[4-(4-morphlin-4-ylmethylbenzyloxy)-1-oxo-1,3-dihydro-isoindo-2-yl]piperidine-2,6-dione], in test [1], the “B cell transcription factor PAX5” value is listed as “enhanced”, the “expression of plasma cell transcription factor BLIMP1” value is given as “dose-dependently inhibited”, the “expression of plasma cell transcription factor RF4” value was “dose-dependently inhibited” and the “expression of plasma cell transcription factor XBP1” value is on record as “dose-dependently inhibited”. Moreover, in test [1] (day 7, 20 nM, qRT-PCR), the BLIMP-1 gene expression was 14.3 % of control, the IRF-4 gene expression is recorded as 20.5 % of control, the IgJ gene expression is given as 31.5 % of control and the XBP-1 gene expression is 15.1 % of control. In addition, in test [2] (Day 4, 20 nM), the BLIMP-1 protein expression result is recorded as “significantly decreased”, the IRF-4 protein expression result was “significantly decreased” and the XBP-1 protein expression entry is “significantly decreased”. The BCL-6 protein expression entry in test [2] (Day 7, 20 nM) is given as “significantly increased”. Moreover, the “prevention of dermal thickening” value in test [3] (3 weeks, p<0.001) is listed as “approximately 25±0.49%”. Moreover, the “reduction of number of α-SMA+ myofibroblasts” value in test [3] (p<0.05) is recorded as 24±0.09%. For the same compound, in test [4], the dermal thickening entry is on record as “no effect” and the numbers of myofibroblasts entry was “did not have an effect”. The IC50 in test [5] is 3.2 nM. Besides, in test [6], the IC50 was determined as 0.35 nM.
